# Assays:
# soybean = experiment: Test C preemergence; assay type: in vivo, Glycine max; details: for Soybean plant response rating: preemergence
# Outline: (§1)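 Seeds were sown in loam–sand blend and sprayed preemergence, while plants at 1- to 4-leaf stage (2–18 cm) in peat-based medium received postemergence sprays; test chemicals were formulated in a non-phytotoxic solvent with surfactant. After 13–15 days in a greenhouse, injury was rated visually against controls, 0 (no effect) to 100 (complete control).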
# velvetleaf = experiment: Test C postemergence; assay type: in vivo, Abutilon theophrasti; details: for Plant response rating, Velvetleaf: scale 0 to 100 (0 no effect, 100 complete control)
# Outline: as §1
# ragweed [1] = experiment: Test C postemergence; assay type: in vivo, Ambrosia elatior; details: for Plant response rating, Ragweed: scale 0 to 100 (0 no effect, 100 complete control)
# Outline: as §1
# ragweed [2] = experiment: Test C preemergence; assay type: in vivo, Ambrosia elatior; details: for Ragweed plant response rating: preemergence
# Outline: as §1
# pigweed [3] = experiment: Test C postemergence; assay type: in vivo, Amaranthus retroflexus; details: for Plant response rating, Pigweed: scale 0 to 100 (0 no effect, 100 complete control)
# Outline: as §1
# giant foxtail = experiment: Test C preemergence; assay type: in vivo, Setaria faberii; details: for Foxtail, Giant plant response rating: preemergence; for Plant response rating, Foxtail, Giant: Preemergence, 31 g ai/ha, scale 0 to 100, 0 no effect, 100 complete control
# Outline: as §1
# oilseed rape = experiment: Test C postemergence; assay type: in vivo, Brassica napus; details: for Plant response rating, Oilseed Rape: scale 0 to 100 (0 no effect, 100 complete control)
# Outline: as §1
# galium = experiment: Test C postemergence; assay type: in vivo, Galium aparine
# Outline: as §1
# pigweed [4] = experiment: Test A preemergence; assay type: in vivo, Amaranthus retroflexus; details: for Plant response rating, Pigweed: 125 g ai/ha; for Pigweed plant response rating: 500 g ai/ha
# Outline: (§2)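 Visual 0–100 rating (100 = complete control) taken about 10 d post-treatment relative to untreated checks. Preemergence: directed soil spray on sown loam/sand pots. Postemergence: seedlings 2–10 cm, 1–2 leaf. Non-phytotoxic solvent formulation with surfactant.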
# waterhemp = experiment: Test C preemergence; assay type: in vivo, Amaranthus rudis; details: for Waterhemp plant response rating: preemergence
# Outline: as §1
# johnsongrass = experiment: Test C preemergence; assay type: in vivo, Sorghum halepense; details: for Johnsongrass plant response rating: preemergence
# Outline: as §1
# wheat = experiment: Test A postemergence; assay type: in vivo, Triticum aestivum; details: 0 to 100 scale where 0 is no effect and 100 is complete control
# Outline: as §2
# corn = experiment: Test A postemergence; assay type: in vivo, Zea mays; details: 0 to 100 scale where 0 is no effect and 100 is complete control
# Outline: as §2
# [5] = 16 g ai/ha, scale 0 to 100 (0 no effect, 100 complete control)
# [6] = 62 g ai/ha, scale 0 (no effect) to 100 (complete control)
# [7] = 125 g ai/ha, scale 0 (no effect) to 100 (complete control)
# [8] = 16 g ai/ha, postemergence, 0 is no effect, 100 is complete control
# [9] = 125 g ai/ha, postemergence, visual rating
# [10] = Postemergence, 62 g ai/ha, scale 0 to 100 (0 no effect, 100 complete control)
# [11] = 0 to 100 scale where 0 is no effect and 100 is complete control
# [12] = Preemergence, 31 g ai/ha, scale 0 to 100, 0 no effect, 100 complete control
# [13] = Postemergence, 31 g ai/ha, 13 to 15 days
smiles,measurement,setting,value
Cc1cnc(Oc2cccc(C#N)c2-n2cc(I)cn2)nc1 [Compound 136],Soybean plant response rating,soybean; [5],20
same,Soybean plant response rating,soybean; [6],50
same,Soybean plant response rating,soybean; [7],85
same,"Plant response rating (0 to 100), Velvetleaf",velvetleaf; [8],10
same,"Plant response rating, Velvetleaf",velvetleaf; [9],25
same,"Plant response rating, Velvetleaf","velvetleaf; Postemergence, 62 g ai/ha",10
same,"Plant response rating (0 to 100), Ragweed",ragweed [1]; [8],25
same,"Plant response rating, Ragweed",ragweed [1]; [9],45
same,"Plant response rating, Ragweed","ragweed [1]; Postemergence, 62 g ai/ha",45
same,Ragweed plant response rating,ragweed [2]; [5],0
same,Ragweed plant response rating,ragweed [2]; [6],20
same,Ragweed plant response rating,ragweed [2]; [7],70
same,"Plant response rating (0 to 100), Pigweed",pigweed [3]; [8],45
same,"Plant response rating, Pigweed",pigweed [3]; [9],55
same,"Plant response rating, Pigweed","pigweed [3]; Postemergence, 62 g ai/ha",55
same,"Foxtail, Giant plant response rating",giant foxtail; [5],0
same,"Foxtail, Giant plant response rating",giant foxtail; [6],80
same,"Foxtail, Giant plant response rating",giant foxtail; [7],100
same,"Plant response rating, Foxtail, Giant",giant foxtail,5
same,"Plant response rating (0 to 100), Oilseed Rape",oilseed rape; [8],0
same,"Plant response rating, Oilseed Rape",oilseed rape; [9],5
same,"Plant response rating, Oilseed Rape","oilseed rape; Postemergence, 62 g ai/ha",5
same,"Plant response rating (0 to 100), Galium",galium; [8],20
same,"Plant response rating, Galium","galium; 125 g ai/ha, postemergence, visual rating, scale 0 to 100 (0 no effect, 100 complete control)",60
same,"Plant response rating, Galium",galium; [10],55
same,"Plant response rating, Pigweed",pigweed [4]; [11],90
same,Pigweed plant response rating,pigweed [4]; [11],100
same,Waterhemp plant response rating,waterhemp; [5],0
same,Waterhemp plant response rating,waterhemp; [6],75
same,Waterhemp plant response rating,waterhemp; [7],100
same,Johnsongrass plant response rating,johnsongrass; [5],0
same,Johnsongrass plant response rating,johnsongrass; [6],20
same,Johnsongrass plant response rating,johnsongrass; [7],60
same,Wheat plant response rating,wheat; 125 g ai/ha,0
same,"Plant response rating, Wheat",wheat; 500 g ai/ha,50
same,Corn plant response rating,corn; 125 g ai/ha,10
same,"Plant response rating, Corn",corn; 500 g ai/ha,60
N#Cc1cccc(Oc2ncc(F)cn2)c1-n1cc(I)cn1 [Compound 86],Soybean plant response rating,soybean; [5],35
same,Soybean plant response rating,soybean; [6],75
same,Soybean plant response rating,soybean; [7],85
same,"Plant response rating, Soybean",soybean; [12],45
same,"Plant response rating (0 to 100), Velvetleaf","velvetleaf; 125 g ai/ha, postemergence",65
same,"Plant response rating, Velvetleaf",velvetleaf; [13],25
same,"Plant response rating, Velvetleaf","velvetleaf; Postemergence, 62 g ai/ha",65
same,"Plant response rating (0 to 100), Ragweed","ragweed [1]; 125 g ai/ha, postemergence",85
same,"Plant response rating, Ragweed",ragweed [1]; [13],50
same,"Plant response rating, Ragweed","ragweed [1]; Postemergence, 62 g ai/ha",55
same,Ragweed plant response rating,ragweed [2]; [5],5
same,Ragweed plant response rating,ragweed [2]; [6],100
same,Ragweed plant response rating,ragweed [2]; [7],100
same,"Plant response rating, Ragweed",ragweed [2]; [12],20
same,"Plant response rating (0 to 100), Pigweed","pigweed [3]; 125 g ai/ha, postemergence",80
same,"Plant response rating, Pigweed",pigweed [3]; [13],65
same,"Plant response rating, Pigweed","pigweed [3]; Postemergence, 62 g ai/ha",65
same,"Foxtail, Giant plant response rating",giant foxtail; [5],35
same,"Foxtail, Giant plant response rating",giant foxtail; [6],100
same,"Foxtail, Giant plant response rating",giant foxtail; [7],100
same,"Plant response rating, Foxtail, Giant",giant foxtail,75
same,"Plant response rating (0 to 100), Oilseed Rape","oilseed rape; 125 g ai/ha, postemergence",45
same,"Plant response rating, Oilseed Rape",oilseed rape; [13],40
same,"Plant response rating, Oilseed Rape","oilseed rape; Postemergence, 62 g ai/ha",60
same,Galium plant response rating,"galium; 16 g ai/ha, postemergence, visual rating, scale 0 to 100 (0 no effect, 100 complete control), 13 to 15 days",55
same,"Plant response rating (0 to 100), Galium","galium; 125 g ai/ha, postemergence",80
same,"Plant response rating, Galium","galium; Postemergence, 31 g ai/ha, scale 0 to 100 (0 no effect, 100 complete control), 13 to 15 days",60
same,"Plant response rating, Galium",galium; [10],80
same,"Plant response rating, Pigweed",pigweed [4]; [11],100
same,Pigweed plant response rating,"pigweed [4]; 0 to 100 scale, 0 no effect, 100 complete control, approx. 10 days",100
same,Waterhemp plant response rating,waterhemp; [5],100
same,Waterhemp plant response rating,waterhemp; [6],100
same,Waterhemp plant response rating,waterhemp; [7],100
same,"Plant response rating, Waterhemp",waterhemp; [12],100
same,Johnsongrass plant response rating,johnsongrass; [5],10
same,Johnsongrass plant response rating,johnsongrass; [6],60
same,Johnsongrass plant response rating,johnsongrass; [7],95
same,"Plant response rating, Johnsongrass",johnsongrass; [12],20
same,"Plant response rating, Wheat",wheat; 125 g ai/ha,50
same,"Plant response rating, Wheat",wheat; 500 g ai/ha,90
same,"Plant response rating, Corn",corn; 125 g ai/ha,50
same,"Plant response rating, Corn",corn; 500 g ai/ha,100
